Measured values taken from PubChem BioAssay AID743425 (Vanderbilt Specialized Chemistry Center, 2014).
Active and inactive are the calls of the source. The rule behind the calls is not given here.

target: Metabotropic glutamate receptor 8 (Homo sapiens) (UniProt O00222); test: potentiation of glutamate EC20 at mGlu8 – rat receptor, calcium, dose response (AID 743425); conditions: rat mGlu8, Fluo-4 calcium
Sequence (O00222 whole entry, looked up): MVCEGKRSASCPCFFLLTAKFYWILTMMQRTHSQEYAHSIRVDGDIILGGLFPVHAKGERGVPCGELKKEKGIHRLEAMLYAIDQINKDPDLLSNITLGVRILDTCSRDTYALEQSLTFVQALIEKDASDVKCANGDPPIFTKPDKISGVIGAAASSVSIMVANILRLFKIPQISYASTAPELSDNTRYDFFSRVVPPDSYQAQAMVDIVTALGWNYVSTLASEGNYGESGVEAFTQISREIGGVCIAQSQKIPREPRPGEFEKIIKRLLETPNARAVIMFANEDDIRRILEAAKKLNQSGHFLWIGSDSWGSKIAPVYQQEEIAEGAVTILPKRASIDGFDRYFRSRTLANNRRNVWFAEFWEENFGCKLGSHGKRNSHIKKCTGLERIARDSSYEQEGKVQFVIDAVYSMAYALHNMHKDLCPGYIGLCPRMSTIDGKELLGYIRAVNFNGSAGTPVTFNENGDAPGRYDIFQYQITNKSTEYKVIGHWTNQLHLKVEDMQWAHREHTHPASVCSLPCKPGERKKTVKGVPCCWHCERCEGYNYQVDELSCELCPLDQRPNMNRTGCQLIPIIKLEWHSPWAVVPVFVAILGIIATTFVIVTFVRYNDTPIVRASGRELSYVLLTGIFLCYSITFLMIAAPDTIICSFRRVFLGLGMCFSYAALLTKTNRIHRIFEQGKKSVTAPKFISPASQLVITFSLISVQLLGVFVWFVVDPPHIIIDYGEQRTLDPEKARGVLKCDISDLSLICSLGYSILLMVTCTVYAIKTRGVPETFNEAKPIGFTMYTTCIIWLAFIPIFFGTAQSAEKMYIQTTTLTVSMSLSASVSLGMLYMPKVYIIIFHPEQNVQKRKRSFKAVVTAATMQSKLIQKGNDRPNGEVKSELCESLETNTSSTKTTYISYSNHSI

EC50	Structure (SMILES)
3.16 µM	COc1ccc(SCC(=O)c2cc(C)n(-c3ccc(OC(F)F)cc3)c2C)cc1
1.14 µM	CC(=O)Nc1ccc(SCC(=O)c2cc(C)n(CC3COc4ccccc4O3)c2C)cc1 (stereo not drawn)
3.16 µM	CCOc1ccc(-n2c(C)cc(C(=O)CSc3ccc(OC)cc3)c2C)cc1
3.16 µM	Cc1ccc(CSCC(=O)c2cc(C)n(-c3ccc(OC(F)F)cc3)c2C)cc1
3.44 µM	CC(=O)Nc1ccc(SCC(=O)c2cc(C)n(CC3CCCO3)c2C)cc1 (stereo not drawn)
0.23 µM	COc1ccc(CSCC(=O)c2cc(C)n(-c3ccc(OC(F)F)cc3)c2C)cc1
3.3 µM	COC(=O)c1ccc(-n2c(C)cc(C(=O)CSc3ccc(N(C)C(C)=O)cc3)c2C)cc1
3.16 µM	CC(=O)Nc1ccc(SCC(=O)c2cc(C)n(-c3ccc(S(N)(=O)=O)cc3)c2C)cc1
1.5 µM	CC(=O)Nc1ccc(SCC(=O)c2cc(C)n(-c3cccc(F)c3)c2C)cc1
1.6 µM	CC(=O)Nc1ccc(SCC(=O)c2cc(C)n(CCc3cccs3)c2C)cc1
3.4 µM	COC(=O)c1ccc(-n2c(C)cc(C(=O)COc3ccc(NC(C)=O)cc3)c2C)cc1
3.16 µM	COC(=O)c1ccc(-n2c(C)cc(C(=O)CSCc3cccc(C)c3)c2C)cc1
10 µM	COC(=O)c1ccc(-n2c(C)cc(C(=O)COc3ccc(OC(C)=O)cc3)c2C)cc1
1.6 µM	COC(=O)c1ccc(-n2c(C)cc(C(=O)CSCc3ccc(OC)cc3)c2C)cc1
0.93 µM	COC(=O)c1ccc(-n2c(C)cc(C(=O)CSc3ccc(NC(C)=O)cc3)c2C)cc1
10 µM	CCn1c(C)cc(C(=O)CSc2ccc(NC(C)=O)cc2)c1C
3.5 µM	CC(=O)Nc1ccc(OCC(=O)c2cc(C)n(-c3ccc(OC(F)F)cc3)c2C)cc1
10 µM	CC(=O)Nc1ccc(SCC(=O)c2cc(C)n(-c3nc(C)cs3)c2C)cc1
3.16 µM	CCOc1ccc(-n2c(C)cc(C(=O)CSCc3cccc(C)c3)c2C)cc1
3.16 µM	CCOc1ccc(-n2c(C)cc(C(=O)CSCc3ccc(OC)cc3)c2C)cc1
3.16 µM	CC(=O)Nc1ccc(SCC(=O)c2cc(C)n(-c3ccccc3F)c2C)cc1

target: Metabotropic glutamate receptor 8 (Rattus norvegicus) (UniProt P70579); test: as above; conditions: rat mGlu8, Fluo-4 calcium, hits give high values
Sequence (P70579 whole entry, looked up): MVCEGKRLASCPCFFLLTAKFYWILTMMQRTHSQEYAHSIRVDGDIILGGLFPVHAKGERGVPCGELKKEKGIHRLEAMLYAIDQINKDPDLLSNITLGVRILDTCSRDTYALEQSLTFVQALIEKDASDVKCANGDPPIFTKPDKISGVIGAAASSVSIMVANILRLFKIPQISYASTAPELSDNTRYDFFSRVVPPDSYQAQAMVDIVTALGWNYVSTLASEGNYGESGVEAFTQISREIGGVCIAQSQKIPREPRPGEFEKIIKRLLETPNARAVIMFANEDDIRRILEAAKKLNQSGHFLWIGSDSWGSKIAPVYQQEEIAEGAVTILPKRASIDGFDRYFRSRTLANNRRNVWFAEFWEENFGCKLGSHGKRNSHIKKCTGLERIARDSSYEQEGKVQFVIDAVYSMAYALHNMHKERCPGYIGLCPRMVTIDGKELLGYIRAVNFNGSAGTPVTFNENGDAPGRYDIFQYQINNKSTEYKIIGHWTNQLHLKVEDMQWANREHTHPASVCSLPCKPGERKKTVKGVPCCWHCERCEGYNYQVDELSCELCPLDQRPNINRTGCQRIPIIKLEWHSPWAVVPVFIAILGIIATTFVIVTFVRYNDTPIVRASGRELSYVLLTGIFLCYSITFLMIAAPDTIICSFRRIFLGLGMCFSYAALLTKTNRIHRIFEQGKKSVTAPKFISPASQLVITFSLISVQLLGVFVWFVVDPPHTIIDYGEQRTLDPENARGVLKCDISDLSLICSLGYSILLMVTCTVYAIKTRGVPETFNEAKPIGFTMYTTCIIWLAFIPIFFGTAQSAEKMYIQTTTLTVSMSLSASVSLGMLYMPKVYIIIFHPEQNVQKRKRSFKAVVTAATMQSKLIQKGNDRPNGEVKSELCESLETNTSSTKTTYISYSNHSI

% glutamate max	Structure (SMILES)
inactive	COC(=O)c1ccc(-n2c(C)cc(C(=O)COc3cccc(N(C)C)c3)c2C)cc1
inactive	COC(=O)c1ccc(-n2c(C)cc(C(=O)CNc3ccc(C(=O)O)cc3)c2C)cc1
